Several values for one entry are separate records, joined by “and”; a condition that tells them apart may be missing. Identical values can stand only once. Entries after “also recorded” stand apart in the source; their conditions may differ.
Experiments:
[1] = system: middle cerebral artery occlusion (MCAO) in rats; assay: Forelimb placing test after MCAO; format: in vivo, Sprague Dawley rats; set-up: Forelimb Placing Total Score, Mean: scale not given here; conditions: for Forelimb Placing Total Score, Mean: group mean N=15; for Forelimb Placing Total Score: individual animals, 0=normal, 12=maximally impaired
Protocol: (§1) 4-AP was evaluated for its ability to promote functional sensorimotor improvement following ischemic stroke in rats with stable motor deficits at times remote from their ischemic events. The animal model mimics the conditions in human ischemic stroke and is produced by middle cerebral artery occlusion (MCAO), which results in extensive infarction in cerebral cortex and striatum, including the cortical spinal tract (white matter). In particular, the MCAO model in Sprague Dawley rats that was utilized in the experiments presented below mimics the conditions in human ischemic stroke. In this experiment, Sprague Dawley rats were anesthetized, subjected to a surgery resulting in middle cerebral artery occlusion (MCAO), treated with and without 4-aminopyridine and behavioral assessments were performed as described below. Surgical Procedure: A small focal stroke (infarct) was made on the right side of the surface of the brain (cerebral cortex) by middle cerebral artery occlusion (MCAO). The right side of the head was shaved with electric clippers (patch of approx 3×5 cm between eye and ear). The region was carefully cleaned with septisol. Using aseptic technique, an incision was made midway between the eye and eardrum canal. The temporalis muscle was isolated, bisected, and reflected. A small window of bone was removed via drill and rongeurs (subtemporal craniectomy) to expose the middle cerebral artery (MCA). Care was taken not to remove the zygomatic arch or to transect the facial nerve that would impair the ability of the animal to chew after surgery. […] The MCA was then transected. The temporalis muscle was then repositioned, and the incision was closed subcutaneously with sutures. The skin incision was closed with surgical staples (2-3 required). Throughout the procedure, body temperature was maintained at 37.0°±1° C., using a self-regulating heating pad connected to a rectal thermometer. Dosing: Rats were treated in accordance with the dosing schedule shown in Tables 1A, 1B, and FIG. 2, with each Phase being a two week period of time. A solution of 4-AP was used in this experiment. Dosing was started at 4 weeks after ischemic event. Treatment groups: Dosing was started 4 weeks after pMCAO surgery. During these 4 weeks, weekly behavioral assessments, as defined below, were performed. Two dose levels of 4-AP plus vehicle control were assessed, with treatment starting at 4 weeks after ischemic event. All dosing was via gastric gavage, volume not to exceed 2 mL/kg. Animals were given the first dose and behavioral assessments were performed starting 60 minutes after dosing. Animals then received the second dose that day at the appropriate time and b.i.d (preferably every 12 hours) thereafter for 2 more days (3 total days of dosing, 5 total doses). One hour after the 5th dose, animals were subjected to behavioral assessments as defined below. Following the final behavioral assessment, drug was withdrawn for 10 or 11 days, behavior was re-assessed, and then animals were re-challenged with a cross-over treatment (Phase II of Table 1B) as described in Tables 1A, 1B, followed by the same behavioral testing and dosing regimen. This cross-over was repeated one more time as well (Phase III of Table 1B) (see FIG. 2). Behavioral test details: Behavioral evaluations were done by investigators blinded to treatment assignment. As described above, behavioral assessments were timed exactly with dosing times. Animals were given the first dose, behavioral assessments were performed starting 60 minutes later, and blood was collected 90 minutes after dosing. Animals then received the second dose that day at the appropriate time and b.i.d (preferably every 12 hours) thereafter for 2 more days (3 total days of dosing, 5 total doses). One hour after the 5th dose, animals were subjected to behavioral testing. […]

[2] = system: middle cerebral artery occlusion (MCAO) in rats; assay: Body swing test (% right swing) after MCAO; format: in vivo, Sprague Dawley rats
Protocol: as §1

[3] = system: middle cerebral artery occlusion (MCAO) in rats; assay: Cylinder test, overall limb-use asymmetry (%) after MCAO; format: in vivo, Sprague Dawley rats; conditions: for Cylinder Test Score (Overall Asymmetry (%)): individual animals
Protocol: as §1

[4] = system: patients with multiple sclerosis; conditions: p<0.05; cited from earlier work
[5] = Group I, Phase 1, D30, High 4-AP 2.0 mg/kg b.i.d. p.o., after first dose
[6] = Group I, Phase 1, D32, High 4-AP 2.0 mg/kg b.i.d. p.o., after 5th dose
[7] = Group I, Phase 2, D44, Low 4-AP 0.63 mg/kg b.i.d. p.o., after first dose
[8] = Group I, Phase 2, D46, Low 4-AP 0.63 mg/kg b.i.d. p.o., after 5th dose

Nc1ccncc1 [4-AP, 4-aminopyridine]
Forelimb Placing Total Score, Mean [1, 5]: 3.37
Forelimb Placing Total Score, Mean [1, 6]: 2.43
Forelimb Placing Total Score, Mean [1, 7]: 2.37
Forelimb Placing Total Score, Mean [1, 8]: 2.03
Forelimb Placing Total Score, Mean ([1]; Group II, Phase 1, D30, Low 4-AP 0.63 mg/kg b.i.d. p.o., after first dose): 4.20
Forelimb Placing Total Score, Mean ([1]; Group II, Phase 1, D32, Low 4-AP 0.63 mg/kg b.i.d. p.o., after 5th dose): 3.43
Forelimb Placing Total Score, Mean ([1]; Group II, Phase 3, D58, High 4-AP 2.0 mg/kg b.i.d. p.o., after first dose): 1.90
Forelimb Placing Total Score, Mean ([1]; Group II, Phase 3, D60, High 4-AP 2.0 mg/kg b.i.d. p.o., after 5th dose): 1.17
Forelimb Placing Total Score, Mean ([1]; Group III, Phase 2, D44, High 4-AP 2.0 mg/kg b.i.d. p.o., after first dose): 2.67
Forelimb Placing Total Score, Mean ([1]; Group III, Phase 2, D46, High 4-AP 2.0 mg/kg b.i.d. p.o., after 5th dose): 1.33
Forelimb Placing Total Score, Mean ([1]; Group III, Phase 3, D58, Low 4-AP 0.63 mg/kg b.i.d. p.o., after first dose): 2.00
Forelimb Placing Total Score, Mean ([1]; Group III, Phase 3, D60, Low 4-AP 0.63 mg/kg b.i.d. p.o., after 5th dose): 1.80
Forelimb Placing Total Score ([1]; Group I, Phase 1, D30 post-MCAO, High 4-AP 2.0 mg/kg b.i.d. p.o., 60 min after first dose): 4.50 (4×) and 3.50 (4×) and 4.00 and 5.50 and 3.00 (2×) and 0.50 and 1.00 and 1.50
Forelimb Placing Total Score ([1]; Group I, Phase 1, D32, High 4-AP 2.0 mg/kg b.i.d. p.o., 1 h after 5th dose): 3.00 (4×) and 2.00 (3×) and 3.50 (3×) and 2.50 and 0.50 (3×) and 4.00
Forelimb Placing Total Score ([1]; Group I, Phase 2, D44, Low 4-AP 0.63 mg/kg b.i.d. p.o., 60 min after first dose): 3.50 (2×) and 1.50 (2×) and 4.00 (4×) and 3.00 (2×) and 2.00 and 0.00 (2×) and 0.50 and 1.00
Forelimb Placing Total Score ([1]; Group I, Phase 2, D46, Low 4-AP 0.63 mg/kg b.i.d. p.o., 1 h after 5th dose): 3.50 (2×) and 1.50 (3×) and 3.00 (3×) and 4.00 and 2.50 (2×) and 0.00 (3×) and 1.00
Forelimb Placing Total Score ([1]; Group II, Phase 1, D30, Low 4-AP 0.63 mg/kg b.i.d. p.o., 60 min after first dose): 5.50 (3×) and 4.00 (2×) and 3.50 and 5.00 and 4.50 and 1.50 (2×)
Forelimb Placing Total Score ([1]; Group II, Phase 1, D32, Low 4-AP 0.63 mg/kg b.i.d. p.o., 1 h after 5th dose): 5.50 and 2.00 (2×) and 4.00 and 5.00 and 3.50 and 4.50 and 1.00 (2×) and 3.00
Forelimb Placing Total Score ([1]; Group II, Phase 3, D58, High 4-AP 2.0 mg/kg b.i.d. p.o., 60 min after first dose): 2.50 (2×) and 0.00 (3×) and 1.50 (2×) and 3.00 and 5.00 and 2.00
Forelimb Placing Total Score ([1]; Group II, Phase 3, D60, High 4-AP 2.0 mg/kg b.i.d. p.o., 1 h after 5th dose): 1.00 (4×) and 0.00 (4×) and 1.50 and 3.50
effect on forelimb function (forelimb placing test) ([1]; low or high dose, 4 weeks post ischemic brain injury, rats, dose-responsive, reversible): effective to improve forelimb function; also recorded: significant improvement
Body Swing Test (% right Swing) ([2]; Group I, D30, individual animals): 33.33% (3×) and 53.33% and 40.00% (2×) and 30.00% and 36.67% (5×) and 43.33% and 26.67% and 46.67%
Body Swing Test (% right Swing), Mean ([2]; Group I, D30, mean of N 15): 37.56%
Body Swing Test (% right Swing) ([2]; Group I, D32, individual animals): 43.33% (2×) and 50.00% (3×) and 53.33% (3×) and 26.67% and 33.33% (3×) and 40.00% (2×) and 30.00%
Body Swing Test (% right Swing), Mean ([2]; Group I, D32, mean of N 15): 42.22%
Body Swing Test (% right Swing) ([2]; Group I, D44, low dose phase (inferred), individual animals): 33.33% (3×) and 56.67% and 43.33% (3×) and 26.67% (2×) and 50.00% and 40.00% (2×) and 46.67% and 30.00% (2×)
Body Swing Test (% right Swing), Mean ([2]; Group I, D44, low dose phase (inferred), mean of N 15): 38.44%
Body Swing Test (% right Swing) ([2]; Group I, D46, individual animals): 36.67% (3×) and 43.33% (4×) and 33.33% (3×) and 30.00% and 53.33% and 20.00% (2×) and 40.00%
Body Swing Test (% right Swing), Mean ([2]; Group I, D46, mean of N 15): 36.44%
Body Swing Test (% right Swing) ([2]; Group II, D30, individual animals): 20.00% and 40.00% and 16.67% and 30.00% and 36.67% and 33.33% (2×) and 23.33% and 53.33% and 26.67%
Body Swing Test (% right Swing), Mean ([2]; Group II, D30, mean of N 15): 32.89%
Body Swing Test (% right Swing) ([2]; Group II, D32, individual animals): 33.33% (5×) and 40.00% and 43.33% (2×) and 30.00% and 46.67%
Body Swing Test (% right Swing), Mean ([2]; Group II, D32, mean of N 15): 37.78%
Body Swing Test (% right Swing) ([2]; Group II, D58, individual animals): 46.67% (3×) and 33.33% (3×) and 26.67% and 40.00% and 43.33% and 50.00%
Body Swing Test (% right Swing), Mean ([2]; Group II, D58, mean of N 15): 40.67%
Body Swing Test (% right Swing) ([2]; Group II, D60, individual animals): 43.33% and 40.00% (2×) and 33.33% (2×) and 46.67% (2×) and 36.67% and 50.00% (2×)
Body Swing Test (% right Swing), Mean ([2]; Group II, D60, mean of N 15): 42.67%
Body Swing Test (% right Swing), Mean ([2]; Group III, D44, high dose phase (inferred), mean of N 15): 39.56%
Body Swing Test (% right Swing), Mean ([2]; Group III, D46, high dose phase (inferred), mean of N 15): 40.44%
Body Swing Test (% right Swing), Mean ([2]; Group III, D58, low dose phase (inferred), mean of N 15): 34.89%
Body Swing Test (% right Swing), Mean ([2]; Group III, D60, low dose phase (inferred), mean of N 15): 35.11%
effect on global body control (body swing test) ([2]; low or high dose, rats after MCAO, reversible and dose-dependent): effective to improve the percentage of rightward over total swings; also recorded: significant improvement
Cylinder Test Score (Overall Asymmetry (%)), Mean ([3]; Group II, D30, first dosing phase (low dose, inferred)): 26.98%
Cylinder Test Score (Overall Asymmetry (%)), Mean ([3]; Group II, D32, first dosing phase (low dose, inferred)): 23.50%
Cylinder Test Score (Overall Asymmetry (%)), Mean ([3]; Group II, D58, third dosing phase (high dose, inferred), N 12): 35.52%
Cylinder Test Score (Overall Asymmetry (%)), Mean ([3]; Group II, D60, third dosing phase (high dose, inferred), N 14): 4.43%
Cylinder Test Score (Overall Asymmetry (%)), Mean ([3]; Group III, D44, second dosing phase (high dose, inferred), N 13): 27.98%
Cylinder Test Score (Overall Asymmetry (%)), Mean ([3]; Group III, D46, second dosing phase (high dose, inferred), N 13): 10.17%
Cylinder Test Score (Overall Asymmetry (%)), Mean ([3]; Group III, D58, third dosing phase (low dose, inferred)): 12.32%
Cylinder Test Score (Overall Asymmetry (%)), Mean ([3]; Group III, D60, third dosing phase (low dose, inferred)): 3.23%
Cylinder Test Score (Overall Asymmetry (%)), Mean ([3]; group mean N=10, Group I, Phase 1, D30, High 4-AP 2.0 mg/kg b.i.d. p.o., after first dose): 17.78%
Cylinder Test Score (Overall Asymmetry (%)), Mean ([3]; group mean N=13, Group I, Phase 1, D32, High 4-AP 2.0 mg/kg b.i.d. p.o., after 5th dose): −15.95%
Cylinder Test Score (Overall Asymmetry (%)), Mean ([3]; group mean N=13, Group I, Phase 2, D46, Low 4-AP 0.63 mg/kg b.i.d. p.o., after 5th dose): 16.29%
Cylinder Test Score (Overall Asymmetry (%)), Mean ([3]; group mean N=15, Group I, Phase 2, D44, Low 4-AP 0.63 mg/kg b.i.d. p.o., after first dose): 10.38%
Cylinder Test Score (Overall Asymmetry (%)) [3, 5]: 9.33% and 0.00% and 50.00% (3×) and 16.67% and 38.46% and −16.67% and −100.00% and 80.00%
Cylinder Test Score (Overall Asymmetry (%)) [3, 6]: 36.36% and 24.07% and 22.73% and 5.13% and −30.00% and −100.00% (2×) and 50.00% (2×) and −60.00% and −65.79% and 16.67% and −56.52%
Cylinder Test Score (Overall Asymmetry (%)) [3, 7]: 60.71% and 25.81% and 39.58% and 22.81% and 31.91% and 33.33% (2×) and 39.02% and −45.45% and −60.00% and −56.06% and 40.00% and 9.30% and 10.00% and −28.57%
Cylinder Test Score (Overall Asymmetry (%)) [3, 8]: 63.64% and 14.89% and 30.23% and 33.33% (3×) and 36.96% and −8.33% (2×) and 25.00% and −100.00% and 50.00% and 7.69%
effect on body symmetry and coordination (cylinder test) ([3]; rats after MCAO, reversible and dose-dependent): effective to improve the asymmetry in limb usage
leg strength (LEMMT) relative to placebo [4]: statistically significantly improved
